In US6517836B1, “Nitrophenylaziridine compounds and their use as prodrugs” (Auckland Uniservices Limited, priority 1998, dated 2003):
Like-named read-outs stand apart in the source and are kept apart here.

What was measured:
[1] = system: human colon carcinoma NR− line (WIDR), wild-type; assay: Cytotoxicity, 18 h drug exposure, WiDr NR− line; assay type: cell-based; conditions: read-out: WiDr NR− IC50
Source text: (§1) The Chinese hamster fibroblast NR− line (T78-1) is a V79/4 Chinese hamster fibroblast transfected with an empty shuttle vector, while the NR+ line (T79-A3) is the corresponding NR transfectant. The human colon carcinoma NR− line (WIDR) is wild-type, while the NR+ line (WC14 10) is the corresponding NR transfectant. The human ovarian carcinoma NR− line (SKOV3) is wild-type, while the NR+ line (SC3.2) is the corresponding NR transfectant. EMT6 is a mouse mammary carcinoma line, and EN2A is the NR-transformed counterpart.

[2] = system: human colon carcinoma NR+ line (WC14 10), NR transfectant; assay: Cytotoxicity, 18 h drug exposure, WiDr NR+ line (WC14 10); assay type: cell-based; conditions: for IC50: read-out: WiDr NR+ IC50; for WiDr ratio of IC50s: WIDR vs WC14 10, inter-experiment average
Source text: as §1

[3] = system: Chinese hamster fibroblast NR+ line (T79-A3), NR transfectant; assay: Cytotoxicity, 18 h drug exposure, V79 NR+ line (T79-A3); assay type: cell-based; conditions: for V-79 ratio of IC50s: T78-1 vs T79-A3, inter-experiment average; for IC50: read-out: V-79 NR+ IC50
Source text: as §1

[4] = system: human ovarian carcinoma NR+ line (SC3.2), NR transfectant; assay: Cytotoxicity, 18 h drug exposure, SKOV NR+ line (SC3.2); assay type: cell-based; conditions: for IC50: read-out: SKOV NR+ IC50; for SKOV ratio of IC50s: SKOV3 vs SC3.2, inter-experiment average
Source text: as §1

[5] = system: human ovarian carcinoma NR− line (SKOV3), wild-type; assay: Cytotoxicity, 18 h drug exposure, SKOV3 NR− line; assay type: cell-based; conditions: read-out: SKOV NR− IC50
Source text: as §1

[6] = system: Chinese hamster fibroblast NR− line (T78-1), V79/4 transfected with an empty shuttle vector; assay: Cytotoxicity, 18 h drug exposure, V79 NR− line (T78-1); assay type: cell-based; conditions: read-out: V-79 NR− IC50
Source text: as §1

[7] = system: EN2A, NR-transformed counterpart of EMT6; assay: Cytotoxicity, 18 h drug exposure, EMT6 NR+ line (EN2A); assay type: cell-based, mouse; conditions: for EMT6 ratio of IC50s: EMT6 vs EN2A, inter-experiment average; for IC50: EN2A cells, 18 h drug exposure, read-out: EMT6 NR+ IC50
Source text: as §1

[8] = system: EMT6 mouse mammary carcinoma line; assay: Cytotoxicity, 18 h drug exposure, EMT6 NR− line; assay type: cell-based; conditions: EMT6 cells, 18 h drug exposure, read-out: EMT6 NR− IC50
Source text: as §1

[9] = WC14 10 cells, 18 h drug exposure
[10] = T79-A3 cells, 18 h drug exposure
[11] = SC3.2 cells, 18 h drug exposure
[12] = SKOV3 cells, 18 h drug exposure
[13] = T78-1 cells, 18 h drug exposure
[14] = Homo sapiens, WIDR cells, 18 h drug exposure
[15] = Homo sapiens, WiDr, WC14 10 cells, 18 h drug exposure
[16] = Cricetulus griseus, Fibroblast, T79-A3 cells, 18 h drug exposure
[17] = Homo sapiens, SC3.2 cells, 18 h drug exposure
[18] = Homo sapiens, SK-OV-3, SKOV3 cells, 18 h drug exposure
[19] = Cricetulus griseus, T78-1 cells, 18 h drug exposure

Structure (SMILES) | IC50 ([1]; WIDR cells, 18 h drug exposure) [µM] | IC50 [2, 9] [µM] | WiDr ratio of IC50s [2] | V-79 ratio of IC50s [3] | IC50 [3, 10] [nM] | IC50 [4, 11] [µM] | SKOV ratio of IC50s [4] | IC50 [5, 12] [µM] | IC50 [6, 13] [µM] | IC50 [1, 14] [µM] | IC50 [2, 15] [µM] | IC50 [3, 16] [nM] | IC50 [4, 17] [µM] | IC50 [5, 18] [µM] | IC50 [6, 19] [µM] | EMT6 ratio of IC50s [7] | also measured
O=C(NCCCCN1CCOCC1)c1cc(N2CC2)c([N+](=O)[O-])cc1[N+](=O)[O-] [Compound 6, N-[4-(4-morpholino)butyl]-5-(aziridin-1-yl)-2,4-dinitrobenzamide] | 28 | 0.31 | 93 | 1210 | 250 | 0.3 | 510 | 151 | 237 |  |  |  |  |  |  |  | 
NC(=O)c1ccc([N+](=O)[O-])c(N2CC2)c1 [Compound 9, 3-(aziridin-1-yl)-4-nitrobenzamide] |  |  | 1.6 | 1.4 |  |  | 1.6 |  |  | 102 | 62 | 62000 | 61 | 93 | 108 |  | 
CN(CCN1CCOCC1)C(=O)c1cc(N2CC2)c([N+](=O)[O-])cc1[N+](=O)[O-] [Compound 4, 5-(aziridin-1-yl)-N-methyl-N-[2-(4-morpholino)ethyl]-2,4-dinitrobenzamide] | 170 | 8.1 | 21 | 235 | 1800 | 13 | 46 | 533 | 364 |  |  |  |  |  |  |  | 
O=C(NCCCN1CCOCC1)c1cc(N2CC2)c([N+](=O)[O-])cc1[N+](=O)[O-] [Compound 5, 5-(aziridin-1-yl)-N-[3-(4-morpholino)propyl]-2,4-dinitrobenzamide] | 30 | 0.23 | 120 | 6210 | 48 | 0.15 | 730 | 122 | 255 |  |  |  |  |  |  |  | 
O=C(NCCn1ccnc1)c1cc(N2CC2)c([N+](=O)[O-])cc1[N+](=O)[O-] [Compound 7, 5-(aziridin-1-yl)-N-[2-(imidazol-1-yl)ethyl]-2,4-dinitrobenzamide] |  |  | 48 | 1170 |  |  | 104 |  |  | 47 | 1 | 390 | 0.58 | 61 | 420 |  | 
O=C(NCC(O)CO)c1cc(N2CC2)c([N+](=O)[O-])cc1[N+](=O)[O-] (stereo not drawn) [Compound 2, N-(2,3-dihydroxypropyl)-5-(aziridin-1-yl)-2,4-dinitrobenzamide] |  |  | 49 | 381 |  |  | 84 |  |  | 147 | 3.7 | 710 | 2.3 | 170 | 210 | 86 | IC50 ([7]; Mus musculus, EMT6): 1100 nM; IC50 ([8]; Mus musculus): 90 µM
NC(=O)c1cc(N2CC2)ccc1[N+](=O)[O-] [Compound 11, 5-(aziridin-1-yl)-2-nitrobenzamide] |  |  | 1.4 | 1.5 |  |  | 1.4 |  |  | 126 | 89 | 81000 | 102 | 129 | 121 |  | 
CS(=O)(=O)c1cc([N+](=O)[O-])c(C(N)=O)cc1N1CC1 [Compound 12, 5-(aziridin-1-yl)-4-(methylsulfonyl)-2-nitrobenzamide] |  |  | 10 | 12 |  |  | 19 |  |  | 224 | 22 | 40000 | 22 | 393 | 419 |  | 
NC(=O)c1c([N+](=O)[O-])ccc(N2CC2)c1[N+](=O)[O-] [Compound 13, 3-(aziridin-1-yl)-2,6-dinitrobenzamide] |  |  | 5.9 | 3.8 |  |  | 9.5 |  |  | 312 | 58 | 135000 | 66 | 584 | 437 | 10 | IC50 ([7]; Mus musculus, EMT6): 27000 nM; IC50 ([8]; Mus musculus): 287 µM
O=C(NCCN1CCOCC1)c1cc(N2CC2)c([N+](=O)[O-])cc1[N+](=O)[O-] [Compound 3, 5-(aziridin-1-yl)-N-[2-(4-morpholino)ethyl]-2,4-dinitrobenzamide] | 131 | 0.72 | 183 | 4160 | 150 | 0.45 | 1100 | 494 | 571 |  |  |  |  |  |  | 4505 | IC50 [7]: 61 nM; IC50 [8]: 229 µM
NC(=O)c1cc([N+](=O)[O-])cc([N+](=O)[O-])c1N1CC1 [Compound 14, 2-(aziridin-1-yl)-3,5-dinitrobenzamide] |  |  | 85 | 864 |  |  | 280 |  |  | 1080 | 13 | 1200 | 6.1 | 1700 | 1080 | 626 | IC50 ([7]; Mus musculus, EMT6): 1300 nM; IC50 ([8]; Mus musculus): 769 µM
COC(=O)CCNC(=O)c1cc(N2CC2)c([N+](=O)[O-])cc1[N+](=O)[O-] [Compound 8, 5-(aziridin-1-yl)-N-[2-(methoxycarbonyl)ethyl]-2,4-dinitrobenzamide] |  |  | 51 | 1580 |  |  | 270 |  |  |  |  |  |  |  |  |  | IC50 ([1]; Homo sapiens, WiDr, 18 h): 124 µM; IC50 ([2]; Homo sapiens, WiDr, 18 h): 2.3 µM; IC50 ([3]; Cricetulus griseus, Fibroblast, 18 h): 400 nM; IC50 ([4]; Homo sapiens, 18 h): 2.5 µM; IC50 ([5]; Homo sapiens, SK-OV-3, 18 h): 677 µM; IC50 ([6]; Cricetulus griseus, T78-1, 18 h): 581 µM
CS(=O)(=O)c1cc([N+](=O)[O-])c(N2CC2)cc1C(=O)NCC(O)CO (stereo not drawn) [Compound 10, 5-(aziridin-1-yl)-N-(2,3-dihydroxypropyl)-2-(methylsulfonyl)-4-nitrobenzamide] |  |  | 33 | 87 |  |  | 159 |  |  | 826 | 26 | 8800 | 6.2 | 920 | 641 | 124 | IC50 ([7]; Mus musculus, EMT6): 3700 nM; IC50 ([8]; Mus musculus): 454 µM
O=C(NCCN1CCOCC1)c1cc([N+](=O)[O-])cc([N+](=O)[O-])c1N1CC1 [Compound 18, 2-(aziridin-1-yl)-N-[2-(4-morpholino)ethyl]-3,5-dinitrobenzamide] | 521 | 18 | 32 | >68 | 7300 | 11 | >72 | > 500 | > 500 |  |  |  |  |  |  |  | 
O=C(NCC(O)CO)c1cc([N+](=O)[O-])cc([N+](=O)[O-])c1N1CC1 (stereo not drawn) [Compound 17, 2-(aziridin-1-yl)-N-(2,3-dihydroxypropyl)-3,5-dinitrobenzamide] |  |  | 71 | 208 |  |  | 184 |  |  | 878 | 12 | 6000 | 7.3 | 1300 | 1440 |  | 
